Active and inactive are the calls of the source. The rule behind the calls is not given here.
Test system: CCRIS mutagenicity, Ames/micronucleus/aberration tests
Assay: CCRIS mutagenicity studies

Measured: mutagenic call

O=C1NC(=O)C(c2ccccc2)(c2ccccc2)N1
inactive: End Point: IN VITRO CHROMOSOMAL ABERRATIONS, Test System: CHINESE HAMSTER OVARY CELLS, Metabolic Activation: NONE inactive; negative | End Point: IN VITRO CHROMOSOMAL ABERRATIONS, Test System: CHINESE HAMSTER OVARY CELLS, Metabolic Activation: RAT, LIVER, S-9, AROCLOR 1254 inactive; negative | End Point: IN VIVO MICRONUCLEUS, Test System: BONE MARROW POLYCHROMATIC ERYTHROCYTES, Species: MOUSE, Strain/Sex: CD-1/MALE, FEMALE, Route: IP inactive; negative | End Point: IN VIVO MICRONUCLEUS, Test System: FETAL LIVER POLYCHROMATIC ERYTHROCYTES (MALES AND FEMALES), Species: MOUSE, Strain/Sex: FEMALE (PREGNANT), Route: IP inactive; negative | Test System: AMES SALMONELLA TYPHIMURIUM, Strain/Indicator: TA97, Metabolic Activation: NONE, Method: STANDARD PLATE inactive; negative | Test System: AMES SALMONELLA TYPHIMURIUM, Strain/Indicator: TA97, Metabolic Activation: RAT, LIVER, S-9, 3-METHYLCHOLANTHRENE, Method: PREINCUBATION (10, 20 OR 30 MIN) inactive; negative | Test System: AMES SALMONELLA TYPHIMURIUM, Strain/Indicator: TA97, Metabolic Activation: RAT, LIVER, S-9, AROCLOR 1254 (50 OR 100 UG), Method: STANDARD PLATE inactive; negative | Test System: AMES SALMONELLA TYPHIMURIUM, Strain/Indicator: TA97, Metabolic Activation: RAT, LIVER, S-9, AROCLOR 1254, Method: PREINCUBATION (10, 20 OR 30 MIN) inactive; negative | Test System: AMES SALMONELLA TYPHIMURIUM, Strain/Indicator: TA97, Metabolic Activation: RAT, LIVER, S-9, AROCLOR 1254, Method: STANDARD PLATE inactive; negative | Test System: AMES SALMONELLA TYPHIMURIUM, Strain/Indicator: TA97, Metabolic Activation: RAT, LIVER, S-9, PHENOBARBITONE, Method: PREINCUBATION (10, 20 OR 30 MIN) inactive; negative | Test System: AMES SALMONELLA TYPHIMURIUM, Strain/Indicator: TA98, Metabolic Activation: HAMSTER, LIVER, S-9, AROCLOR 1254 (10%), Method: PREINCUBATION inactive; negative | Test System: AMES SALMONELLA TYPHIMURIUM, Strain/Indicator: TA98, Metabolic Activation: NONE, Method: PREINCUBATION inactive; negative | Test System: AMES SALMONELLA TYPHIMURIUM, Strain/Indicator: TA98, Metabolic Activation: NONE, Method: STANDARD PLATE inactive; negative | Test System: AMES SALMONELLA TYPHIMURIUM, Strain/Indicator: TA98, Metabolic Activation: RAT, LIVER, S-9, 3-METHYLCHOLANTHRENE, Method: STANDARD PLATE inactive; negative | Test System: AMES SALMONELLA TYPHIMURIUM, Strain/Indicator: TA98, Metabolic Activation: RAT, LIVER, S-9, AROCLOR 1254 (10%), Method: PREINCUBATION inactive; negative | Test System: AMES SALMONELLA TYPHIMURIUM, Strain/Indicator: TA98, Metabolic Activation: RAT, LIVER, S-9, AROCLOR 1254 (50 OR 100 UG), Method: STANDARD PLATE inactive; negative | Test System: AMES SALMONELLA TYPHIMURIUM, Strain/Indicator: TA98, Metabolic Activation: RAT, LIVER, S-9, AROCLOR 1254, Method: PREINCUBATION (10, 20 OR 30 MIN) inactive; negative | Test System: AMES SALMONELLA TYPHIMURIUM, Strain/Indicator: TA98, Metabolic Activation: RAT, LIVER, S-9, AROCLOR 1254, Method: STANDARD PLATE inactive; negative | Test System: AMES SALMONELLA TYPHIMURIUM, Strain/Indicator: TA98, Metabolic Activation: RAT, LIVER, S-9, PHENOBARBITONE, Method: STANDARD PLATE inactive; negative | Test System: AMES SALMONELLA TYPHIMURIUM, Strain/Indicator: TA100, Metabolic Activation: HAMSTER, LIVER, S-9, AROCLOR 1254 (10%), Method: PREINCUBATION inactive; negative | Test System: AMES SALMONELLA TYPHIMURIUM, Strain/Indicator: TA100, Metabolic Activation: NONE, Method: PREINCUBATION inactive; negative | Test System: AMES SALMONELLA TYPHIMURIUM, Strain/Indicator: TA100, Metabolic Activation: NONE, Method: STANDARD PLATE inactive; negative | Test System: AMES SALMONELLA TYPHIMURIUM, Strain/Indicator: TA100, Metabolic Activation: RAT, LIVER, S-9, AROCLOR 1254 (10%), Method: PREINCUBATION inactive; negative | Test System: AMES SALMONELLA TYPHIMURIUM, Strain/Indicator: TA100, Metabolic Activation: RAT, LIVER, S-9, AROCLOR 1254 (50 OR 100 UG), Method: STANDARD PLATE inactive; negative | Test System: AMES SALMONELLA TYPHIMURIUM, Strain/Indicator: TA100, Metabolic Activation: RAT, LIVER, S-9, AROCLOR 1254, Method: STANDARD PLATE inactive; negative | Test System: AMES SALMONELLA TYPHIMURIUM, Strain/Indicator: TA1530, Metabolic Activation: NONE, Method: STANDARD PLATE inactive; negative | Test System: AMES SALMONELLA TYPHIMURIUM, Strain/Indicator: TA1530, Metabolic Activation: RAT, LIVER, S-9, AROCLOR 1254 (50 OR 100 UG), Method: STANDARD PLATE inactive; negative | Test System: AMES SALMONELLA TYPHIMURIUM, Strain/Indicator: TA1535, Metabolic Activation: HAMSTER, LIVER, S-9, AROCLOR 1254 (10%), Method: PREINCUBATION inactive; negative | Test System: AMES SALMONELLA TYPHIMURIUM, Strain/Indicator: TA1535, Metabolic Activation: NONE, Method: PREINCUBATION inactive; negative | Test System: AMES SALMONELLA TYPHIMURIUM, Strain/Indicator: TA1535, Metabolic Activation: RAT, LIVER, S-9, AROCLOR 1254 (10%), Method: PREINCUBATION inactive; negative | Test System: AMES SALMONELLA TYPHIMURIUM, Strain/Indicator: TA1537, Metabolic Activation: HAMSTER, LIVER, S-9, AROCLOR 1254 (10%), Method: PREINCUBATION inactive; negative | Test System: AMES SALMONELLA TYPHIMURIUM, Strain/Indicator: TA1537, Metabolic Activation: NONE, Method: PREINCUBATION inactive; negative | Test System: AMES SALMONELLA TYPHIMURIUM, Strain/Indicator: TA1537, Metabolic Activation: NONE, Method: STANDARD PLATE inactive; negative | Test System: AMES SALMONELLA TYPHIMURIUM, Strain/Indicator: TA1537, Metabolic Activation: RAT, LIVER, S-9, AROCLOR 1254 (10%), Method: PREINCUBATION inactive; negative | Test System: AMES SALMONELLA TYPHIMURIUM, Strain/Indicator: TA1537, Metabolic Activation: RAT, LIVER, S-9, AROCLOR 1254 (50 OR 100 UG), Method: STANDARD PLATE inactive; negative | Test System: AMES SALMONELLA TYPHIMURIUM, Strain/Indicator: TA1538, Metabolic Activation: NONE, Method: STANDARD PLATE inactive; negative | Test System: AMES SALMONELLA TYPHIMURIUM, Strain/Indicator: TA1538, Metabolic Activation: RAT, LIVER, S-9, 3-METHYLCHOLANTHRENE, Method: STANDARD PLATE inactive; negative | Test System: AMES SALMONELLA TYPHIMURIUM, Strain/Indicator: TA1538, Metabolic Activation: RAT, LIVER, S-9, AROCLOR 1254 (50 OR 100 UG), Method: STANDARD PLATE inactive; negative | Test System: AMES SALMONELLA TYPHIMURIUM, Strain/Indicator: TA1538, Metabolic Activation: RAT, LIVER, S-9, AROCLOR 1254, Method: PREINCUBATION (10, 20 OR 30 MIN) inactive; negative | Test System: AMES SALMONELLA TYPHIMURIUM, Strain/Indicator: TA1538, Metabolic Activation: RAT, LIVER, S-9, AROCLOR 1254, Method: STANDARD PLATE inactive; negative | Test System: AMES SALMONELLA TYPHIMURIUM, Strain/Indicator: TA1538, Metabolic Activation: RAT, LIVER, S-9, PHENOBARBITONE, Method: STANDARD PLATE inactive; negative | Test System: CHINESE HAMSTER OVARY, Strain/Indicator: CHO-K1-BH4 (HGPRT)/6-THIOGUANINE, Metabolic Activation: NONE, Method: SUSPENSION/PLATE inactive; negative | Test System: CHINESE HAMSTER OVARY, Strain/Indicator: CHO-K1-BH4 (HGPRT)/6-THIOGUANINE, Metabolic Activation: S-9, Method: SUSPENSION/PLATE inactive; negative | Test System: MOUSE LYMPHOMA, Strain/Indicator: L5178Y (TK+/TK-), Metabolic Activation: NONE, Method: SUSPENSION/PLATE inactive; negative | Test System: MOUSE LYMPHOMA, Strain/Indicator: L5178Y (TK+/TK-), Metabolic Activation: RAT, LIVER, S-9, AROCLOR 1254, Method: SUSPENSION/PLATE inactive; negative | Test System: MOUSE LYMPHOMA, Strain/Indicator: L5178Y (TK+/TK-), Metabolic Activation: S-9, Method: SUSPENSION/PLATE inactive; negative

Source: PubChem BioAssay AID1259407 (Chemical Carcinogenesis Research Information System (CCRIS), 2018)
